Reference: US11332459B2 (TEIJIN PHARMA LIMITED, priority 2017, dated 2022)
Where a name gives a salt, the structure may show the parent alone.

These compounds were tested against T1, human TRPC6 (Homo sapiens, UniProt Q9Y210) (assay: TRPC6 calcium flux assay (FLIPR, OAG-stimulated calcium influx)). Conditions: HEK293 cells stably transfected with human TRPC6, read-out: hTRPC6 Potency.
T1 construct: expressed in transfected cells
T1 sequence (Q9Y210 1-931): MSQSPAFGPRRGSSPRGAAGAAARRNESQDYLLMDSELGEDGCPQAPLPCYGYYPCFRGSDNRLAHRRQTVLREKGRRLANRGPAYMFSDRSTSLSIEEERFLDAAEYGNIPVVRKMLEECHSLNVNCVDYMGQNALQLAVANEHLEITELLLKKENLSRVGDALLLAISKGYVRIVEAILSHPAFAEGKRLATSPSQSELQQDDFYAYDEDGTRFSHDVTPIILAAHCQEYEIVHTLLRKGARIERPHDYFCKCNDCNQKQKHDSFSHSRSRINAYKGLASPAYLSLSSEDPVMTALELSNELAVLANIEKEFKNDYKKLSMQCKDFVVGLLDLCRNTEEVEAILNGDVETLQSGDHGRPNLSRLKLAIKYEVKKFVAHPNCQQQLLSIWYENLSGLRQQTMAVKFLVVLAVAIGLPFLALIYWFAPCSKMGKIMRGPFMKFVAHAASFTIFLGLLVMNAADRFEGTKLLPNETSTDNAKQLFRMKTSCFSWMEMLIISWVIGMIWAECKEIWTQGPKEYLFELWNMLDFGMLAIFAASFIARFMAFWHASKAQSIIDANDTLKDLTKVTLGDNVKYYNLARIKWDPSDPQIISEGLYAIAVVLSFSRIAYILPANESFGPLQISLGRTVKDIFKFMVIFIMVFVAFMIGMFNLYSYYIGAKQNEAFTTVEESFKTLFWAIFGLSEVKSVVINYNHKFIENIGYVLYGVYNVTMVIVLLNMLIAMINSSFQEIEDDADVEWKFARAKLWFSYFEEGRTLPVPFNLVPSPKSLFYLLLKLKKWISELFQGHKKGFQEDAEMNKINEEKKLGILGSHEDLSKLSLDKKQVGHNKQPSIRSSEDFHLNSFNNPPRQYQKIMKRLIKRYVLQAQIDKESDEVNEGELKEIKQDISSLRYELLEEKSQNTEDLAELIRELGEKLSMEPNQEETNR
Assay type: cell-based
In short: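 IC50 derived by plotting background-corrected peak fluorescence (180 s window, normalized to OAG-triggered signal vs buffer) against dose. Stable human TRPC6 HEK293 line was dye-loaded, exposed to compound 25 min, then challenged with 50 uM final OAG in 2 mM Ca2+ HEPES buffer pH 7.2, 0.5% DMSO.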
With `N#Cc1ccc(Cn2c(N3CC[C@H](F)[C@H](N)C3)nc3ccccc32)cc1` [Example 172, 4-((2-((3R,4S)-3-amino-4-fluoropiperidin-1-yl)-1H-benzo[d]imidazol-1-yl)methyl)benzonitrile] the IC50 was 2.22 nM.
`N[C@@H]1CN(c2nc3cc(F)cnc3n2Cc2ncc(Cl)cn2)CC[C@H]1F` [Example 583] gave an IC50 of 420 nM.
Compound “(3R,4R)-4-fluoro-1-(6- fluoro-1-((4- methoxypyridin-2- yl)methyl)-1H- benzo[d]imidazol-2- yl)piperidin-3-amine [Example 517]” has an IC50 of 319 nM.
`N[C@@H]1CN(c2nc3c(F)cc(F)cc3n2Cc2ccc(Cl)cn2)CCC1(F)F` [Example 230, (R)-1-(1-((5-chloropyridin-2-yl)methyl)-4,6-difluoro-1H-benzo[d]imidazol-2-yl)-4,4-difluoropiperidin-3-amine hydrochloride] was tested, and the IC50 was 0.49 nM.
Work on `CC(C#N)CN(C)C(=O)Cn1c(N2CC[C@@H](F)[C@H](N)C2)nc2cc(F)c(F)cc21` (mixture of isomers) [Example 621, 2-(2-((3R,4R)-3-amino-4-fluoropiperidin-1-yl)-5,6-difluoro-1H-benzo[d]imidazol-1-yl)-N-(2-cyanopropyl)-N-methylacetamide] yielded an IC50 of 75.3 nM.
`CN(C)S(=O)(=O)c1ccc(Cn2c(N3CCC[C@@H](N)C3)nc3ccccc32)cc1` [Example 385, (R)-4-((2-(3-aminopiperidin-1-yl)-1H-benzo[d]imidazol-1-yl)methyl)-N,N-dimethylbenzenesulfon-amide] showed an IC50 of over 50000 nM.
`N#Cc1ccc(Cn2c(N3CC[C@H](F)[C@@H](N)C3)nc3ccccc32)cc1` [Example 170, 4-((2-((3S,4S)-3-amino-4-fluoropiperidin-1-yl)-1H-benzo[d]imidazol-1-yl)methyl)benzonitrile] gave an IC50 of 25.9 nM.
`C[C@@H](c1ccc(C#N)cn1)n1c(N2CC[C@H]3OCCN[C@@H]3C2)nc2cc(F)cc(F)c21` [Example 274, 6-((1S)-1-(5,7-difluoro-2-((4aR,8aR)-hexahydro-2H-pyrido[4,3-b][1,4]oxazin-6(5H)-yl)-1H-benzimidazol-1-yl)ethyl)-3-pyridinecarbonitrile] was tested, and the IC50 was 0.328 nM.
`N[C@@H]1CN(c2nc3cc(Cl)ccc3n2CC(=O)N2CCC2)CC[C@H]1F` [Example 286, 2-(2-((3R,4R)-3-amino-4-fluoro-1-piperidinyl)-5-chloro-1H-benzimidazol-1-yl)-1-(1-azetidinyl)ethanone] was tested, and the IC50 was 562 nM.
`Cc1nnc(Cn2c(N3CC[C@@H](F)[C@H](N)C3)nc3c(F)cc(F)cc32)s1` [Example 552, (3R,4R)-1-(4,6-difluoro-1-((5-methyl-1,3,4-thiadiazol-2-yl)methyl)-1H-benzo[d]imidazol-2-yl)-4-fluoropiperidin-3-amine] gave an IC50 of 6.51 nM.
With `N[C@@H]1CN(c2nc3cc(F)c(F)cc3n2CC(=O)N2CCOCC2)CC[C@H]1F` [Example 276, 2-(2-((3R,4R)-3-amino-4-fluoro-1-piperidinyl)-5,6-difluoro-1H-benzimidazol-1-yl)-1-(4-morpholinyl)ethanone] the IC50 was 42.2 nM.
Work on `N#Cc1ccc(Cn2c(N3CC[C@H](O)[C@@H](N)C3)nc3ccccc32)nc1` [Example 96, 6-((2-((3S,4S)-3-amino-4-hydroxypiperidin-1-yl)-1H-benzo[d]imidazol-1-yl)methyl)nicotinonitrile] yielded an IC50 of 134 nM.
With `N#Cc1ccc(Cn2c(N3CC[C@@H](F)[C@H](N)C3)nc3c(Cl)cc(F)cc32)nc1` [Example 144, 6-((2-((3R,4R)-3-amino-4-fluoropiperidin-1-yl)-4-chloro-6-fluoro-1H-benzo[d]imidazol-1-yl)methyl)nicotinonitrile 2,2,2-trifluoroacetate] the IC50 was 0.462 nM.
Work on `COc1ccc2c(c1)nc(N1CC[C@@H](F)[C@H](N)C1)n2CC(=O)N(C)C` [Example 450, 2-(2-((3R,4R)-3-amino-4-fluoropiperidin-1-yl)-5-methoxy-1H-benzo[d]imidazol-1-yl)-N,N-dimethylacetamide] yielded an IC50 of over 3750 nM.
Compound `N[C@@H]1CN(c2nc3cc(F)c(F)cc3n2CC(=O)N2CCCC(C(F)(F)F)C2)CC[C@H]1F` (mixture of isomers) [Example 504, 2-(2-((3R,4R)-3-amino-4-fluoropiperidin-1-yl)-5,6-difluoro-1H-benzo[d]imidazol-1-yl)-1-(3-(trifluoromethyl)piperidin-1-yl)ethan-1-one] has an IC50 of 39.3 nM.
For `N#Cc1ccc(Cn2c(N3CC[C@H](F)[C@H](N)C3)nc3ccc(Cl)cc32)nc1` [Example 8, 6-((2-((3R,4S)-3-amino-4-fluoropiperidin-1-yl)-6-chloro-1H-benzo[d]imidazol-1-yl)methyl)nicotinonitrile], the IC50 was 0.283 nM.
In the case of `CNC(=O)C1CCN(C(=O)Cn2c(N3CC[C@@H](F)[C@H](N)C3)nc3cc(F)c(F)cc32)CC1` [Example 534, 1-(2-(2-((3R,4R)-3-amino-4-fluoropiperidin-1-yl)-5,6-difluoro-1H-benzo[d]imidazol-1-yl)acetyl)-N-methylpiperidine-4-carboxamide], the IC50 is reported as over 3750 nM.
With `N[C@@H]1CCCN(c2nc3ccccc3n2Cc2ccc(Cl)c(F)c2)C1` [Example 391, (R)-1-(1-(4-chloro-3-fluorobenzyl)-1H-benzo[d]imidazol-2-yl)piperidin-3-amine] the IC50 was 1820 nM.
In the case of `N#Cc1ccccc1Cn1c(N2CC[C@@H](F)[C@H](N)C2)nc2cc(F)c(F)cc21` [Example 353, 2-((2-((3R,4R)-3-amino-4-fluoro-1-piperidinyl)-5,6-difluoro-1H-benzimidazol-1-yl)methyl)benzonitrile], the IC50 is reported as 30.8 nM.
`NC(=O)c1cnc(Cn2c(N3CC[C@@H](F)[C@H](N)C3)nc3cc(F)c(F)cc32)cn1` [Example 133, 5-((2-((3R,4R)-3-amino-4-fluoro-1-piperidinyl)-5,6-difluoro-1H-benzimidazol-1-yl)methyl)-2-pyrazinecarboxamide] showed an IC50 of 6.98 nM.
With `N[C@@H]1CN(c2nc3cc(F)c(F)cc3n2CC(=O)N2CCCC2)CC[C@H]1F` [Example 277, 2-(2-((3R,4R)-3-amino-4-fluoro-1-piperidinyl)-5,6-difluoro-1H-benzimidazol-1-yl)-1-(1-pyrrolidinyl)ethanone] the IC50 was 0.49 nM.
`COc1cnc(Cn2c(N3CC[C@@H](F)[C@H](N)C3)nc3cc(C#N)ccc32)nc1` [Example 241, 2-((3R,4R)-3-amino-4-fluoropiperidin-1-yl)-1-((5-methoxypyrimidin-2-yl)methyl)-1H-benzo[d]imidazole-5-carbonitrile hydrochloride] was tested, and the IC50 was over 3750 nM.
For `N#Cc1ccc(Cn2c(N3CC[C@@H](F)[C@H](N)C3)nc3ccncc32)cc1` [Example 413, 4-((2-((3R,4R)-3-amino-4-fluoropiperidin-1-yl)-3H-imidazo[4,5-c]pyridin-3-yl)methyl)benzonitrile], the IC50 was 221 nM.
`N[C@@H]1CN(c2nc3cc(F)ccc3n2Cc2ncc(Cl)cn2)CC[C@H]1O` [Example 206, (3R,4R)-3-amino-1-(1-((5-chloropyrimidin-2-yl)methyl)-5-fluoro-1H-benzo[d]imidazol-2-yl)piperidin-4-ol] was tested, and the IC50 was 12.3 nM.
`CCC1CN(C(=O)Cn2c(N3CC[C@@H](F)[C@H](N)C3)nc3cc(F)c(F)cc32)CCO1` (stereo partly drawn) [Example 518, 2-(2-((3R,4R)-3-amino-4-fluoropiperidin-1-yl)-5,6-difluoro-1H-benzo[d]imidazol-1-yl)-1-(2-ethylmorpholino)ethan-1-one] showed an IC50 of 400 nM.
